Where a SMILES comes first, the peptide text is derived from it. Bridges are numbered along the chain shown (N, C = ends). [ ]: non-standard residue; d: D form. The star is where a group is joined. d(aIle) = CC[C@H](C)[C@@H](N)C(=O)O; Hexanoyl(5-Me) = CC(C)CCCC(=O)*; Orn = NCCC[C@H](N)C(=O)O; Dhb = C/C=C(\N)C(=O)O
Columns and labels:
Assay type in all cases: cell-based, human
PANC-1 = test: SRB colorimetric assay of cell growth and viability, PANC-1; settings: 48 hours exposure; for CC50: read-out: LC50 PANC-1
HT-29 = test: SRB colorimetric assay of cell growth and viability, HT-29; settings: 48 hours exposure; for GI50: read-out: GI50 HT-29; for CC50: read-out: LC50 HT-29
DU-145 = test: SRB colorimetric assay of cell growth and viability, DU-145; settings: 48 hours exposure
SK-BR-3 = test: SRB colorimetric assay of cell growth and viability, SK-BR-3; settings: 48 hours exposure
LoVo-Dox = test: SRB colorimetric assay of cell growth and viability, LoVo-Dox; settings: 48 hours exposure; for CC50: read-out: LC50 LOVO-DOX
Procedure, shortened: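 Tumor cells are continuously exposed to sample for 48 hours, with vehicle DMSO:EtOH:PBS (0.5:0.5:99), after an 18-hour drug-free attachment period. Bound SRB, measured at 490 nm, reflects cell mass; GI, TGI and LC are derived from triplicate means.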

HeLa-APL = test: SRB colorimetric assay of cell growth and viability, HeLa-APL; settings: 48 hours exposure; for CC50: read-out: LC50 HELA-APL
LoVo = test: SRB colorimetric assay of cell growth and viability, LoVo; settings: 48 hours exposure; for CC50: read-out: LC50 LOVO
SK-MEL-28 = test: SRB colorimetric assay of cell growth and viability, SK-MEL-28; settings: 48 hours exposure; for CC50: read-out: LC50 MEL-28
LNCaP = test: SRB colorimetric assay of cell growth and viability, LNCaP; settings: 48 hours exposure; for GI50: read-out: GI50 LN-caP; for CC50: read-out: LC50 LN-caP
K-562 = test: SRB colorimetric assay of cell growth and viability, K-562; settings: 48 hours exposure; for CC50: read-out: LC50 K-562
A-549 = test: SRB colorimetric assay of cell growth and viability, A-549; settings: 48 hours exposure; for GI50: read-out: GI50 A-549; for CC50: read-out: LC50 A-549
IGROV-1 = test: SRB colorimetric assay of cell growth and viability, IGROV-1; settings: 48 hours exposure
HeLa = test: SRB colorimetric assay of cell growth and viability, HeLa; settings: 48 hours exposure; for CC50: read-out: LC50 HELA
IGROV-ET = test: SRB colorimetric assay of cell growth and viability, IGROV-ET; settings: 48 hours exposure; for CC50: read-out: LC50 IGROV-ET

In the case of C/C=C1\NC(=O)[C@H](Cc2ccccc2)NC(=O)[C@@H](C(C)C)NC(=O)[C@@H](C(C)CC)NC(=O)[C@H](NC(=O)[C@H](NC(=O)[C@H](CCCN)NC(=O)[C@H]2CCCN2C(=O)[C@H](NC(=O)[C@@H](NC(=O)[C@@H](NC(=O)[C@H](NC(=O)CCC(C)CC)C(C)C)C(C)O)C(C)C)C(C)C)C(C)CC)C(C)OC(=O)[C@H](C(C)C)NC1=O (stereo partly drawn) [Compound 1, (4S)-MeHex-D-Val-ThrVal-D-Val-D-Pro-Orn-D-allo-Ile-cyclo[D-allo-Thr-D-allo-Ile-D-Val-Phe-(Z)Dhb-Val]], the GI50 (PANC-1) is reported as 1.82 µM, the “TGI PANC-1” value (PANC-1) is reported as 3.66E−06 Molar and the CC50 (PANC-1) is reported as at least 6.77 µM. The “TGI HT-29” value (HT-29) was 2.18E−07 Molar, the GI50 (HT-29) was 0.0954 µM and the CC50 (HT-29) was 0.498 µM. For the same compound, the GI50 (DU-145) was 0.327 µM, the LC50 (concentration causing 50% net cell kill) (DU-145) was 2.54 µM and the “TGI DU-145” value (DU-145) was 8.80E−07 Molar. For the same compound, the GI50 (SK-BR-3) was 0.0434 µM, the LC50 (SK-BR-3) was 0.469 µM and the “TGI SK-BR-3” value (SK-BR-3) was 9.27E−08 Molar. For the same compound, the GI50 (LoVo-Dox) was 0.0636 µM, the “TGI LOVO-DOX” value (LoVo-Dox) was 2.29E−07 Molar and the CC50 (LoVo-Dox) was 1.43 µM. The GI50 (HeLa-APL) was 0.556 µM, the “TGI HELA-APL” value (HeLa-APL) was 1.52E−06 Molar and the CC50 (HeLa-APL) was 3.81 µM. For the same compound, the GI50 (LoVo) was 0.116 µM, the “TGI LOVO” value (LoVo) was 2.42E−07 Molar and the CC50 (LoVo) was 0.502 µM. The GI50 (SK-MEL-28) was 0.315 µM, the “TGI MEL-28” value (SK-MEL-28) was 4.10E−07 Molar and the CC50 (SK-MEL-28) was 2.1 µM. For the same compound, the “TGI LN-caP” value (LNCaP) was 2.14E−06 Molar, the GI50 (LNCaP) was 0.9 µM and the CC50 (LNCaP) was 5.08 µM. The GI50 (K-562) was 1.62 µM, the “TGI K-562” value (K-562) was 2.96E−06 Molar and the CC50 (K-562) was 5.4 µM. The “TGI A-549” value (A-549) was 2.05E−06 Molar, the GI50 (A-549) was 0.907 µM and the CC50 (A-549) was 4.63 µM. The GI50 (IGROV-1) was 0.158 µM, the LC50 (concentration causing 50% net cell killing) (IGROV-1) was 0.641 µM and the “TGI IGROV” value (IGROV-1) was 3.19E−07 Molar. For the same compound, the GI50 (HeLa) was 0.254 µM, the “TGI HELA” value (HeLa) was 7.38E−07 Molar and the CC50 (HeLa) was 2.56 µM. The GI50 (IGROV-ET) was 0.135 µM, the “TGI IGROV-ET” value (IGROV-ET) was 2.89E−07 Molar and the CC50 (IGROV-ET) was 0.619 µM.
In the case of C/C=C1\NC(=O)[C@H](Cc2ccccc2)NC(=O)[C@@H](C(C)C)NC(=O)[C@@H]([C@@H](C)CC)NC(=O)[C@H](NC(=O)[C@H](NC(=O)[C@H](CCCN)NC(=O)[C@H]2CCCN2C(=O)[C@H](NC(=O)[C@@H](NC(=O)[C@@H](NC(=O)[C@H](NC(=O)CCCC(C)C)C(C)C)[C@@H](C)O)C(C)C)C(C)C)[C@@H](C)CC)COC(=O)[C@H](C(C)C)NC1=O [Compound 3, [D-Ser^6]-KF] ({Hexanoyl(5-Me)}-[dV]TV[dV][dP][Orn][d(aIle)][dS][d(aIle)][dV]F[Dhb]V; ester 8-C), the GI50 (PANC-1) is reported as 3.08 µM, the “TGI PANC-1” value (PANC-1) is reported as 6.83E−06 Molar and the CC50 (PANC-1) is reported as at least 6.83 µM. The “TGI HT-29” value (HT-29) was 1.22E−06 Molar, the GI50 (HT-29) was 0.378 µM and the CC50 (HT-29) was 3.52 µM. For the same compound, the GI50 (DU-145) was 0.833 µM, the LC50 (concentration causing 50% net cell kill) (DU-145) was 3.44 µM and the “TGI DU-145” value (DU-145) was 1.69E−06 Molar. For the same compound, the GI50 (SK-BR-3) was 0.406 µM, the LC50 (SK-BR-3) was 2.45 µM and the “TGI SK-BR-3” value (SK-BR-3) was 6.23E−07 Molar. For the same compound, the GI50 (LoVo-Dox) was 0.179 µM, the “TGI LOVO-DOX” value (LoVo-Dox) was 3.37E−07 Molar and the CC50 (LoVo-Dox) was 0.637 µM. For the same compound, the GI50 (HeLa-APL) was 1.37 µM, the “TGI HELA-APL” value (HeLa-APL) was 2.28E−06 Molar and the CC50 (HeLa-APL) was 3.78 µM. The GI50 (LoVo) was 0.189 µM, the “TGI LOVO” value (LoVo) was 3.64E−07 Molar and the CC50 (LoVo) was 0.758 µM. For the same compound, the GI50 (SK-MEL-28) was 1.57 µM, the “TGI MEL-28” value (SK-MEL-28) was 2.66E−06 Molar and the CC50 (SK-MEL-28) was 4.53 µM. For the same compound, the “TGI LN-caP” value (LNCaP) was 1.12E−06 Molar, the GI50 (LNCaP) was 0.372 µM and the CC50 (LNCaP) was 2.94 µM. The GI50 (K-562) was 5.08 µM, the “TGI K-562” value (K-562) was 6.83E−06 Molar and the CC50 (K-562) was at least 6.83 µM. For the same compound, the “TGI A-549” value (A-549) was 2.46E−06 Molar, the GI50 (A-549) was 1.36 µM and the CC50 (A-549) was 4.47 µM. The GI50 (IGROV-1) was 0.455 µM, the LC50 (concentration causing 50% net cell killing) (IGROV-1) was 3.16 µM and the “TGI IGROV” value (IGROV-1) was 1.27E−06 Molar. The GI50 (HeLa) was 1.35 µM, the “TGI HELA” value (HeLa) was 2.64E−06 Molar and the CC50 (HeLa) was 5.21 µM. The GI50 (IGROV-ET) was 0.264 µM, the “TGI IGROV-ET” value (IGROV-ET) was 6.38E−07 Molar and the CC50 (IGROV-ET) was 2.11 µM.

Source: patent US20070117743A1, “New antitumoral compounds” (priority 2003, published 2007)
